Assay results reported in patent publication US20240216344A1, “THIAZOLIDINEDIONE ANALOGS FOR THE TREATMENT OF NAFLD AND METABOLIC DISEASES” (Cirius Therapeutics, Inc., priority 2019, published 2024).

Tested on: patients with biopsy-proven NASH with fibrosis and no cirrhosis
Assay: EMMINENCE Phase 2b trial, safety and weight
Type: in vivo
Experimental: The primary efficacy endpoint was assessed at 12 months. Clinic visits were conducted at baseline, 1, 2, 3, 6, 9, and 12 months, followed 2 weeks later by a safety visit.
Safety: Safety was evaluated by adverse event incidence, and changes in clinical laboratory values, vital signs, and ECG parameters. Major adverse cardiovascular events (MACE) including death, non-fatal myocardial infarction (MI), unstable angina (USA) hospitalization, hospital admission for heart failure (HF), or non-fatal ischemic stroke; liver events including ascites, hepatic encephalopathy, variceal hemorrhage, hepatocellular carcinoma (HCC), or liver transplant; severe hypoglycemia; and bone fracture requiring surgery or hospitalization were adjudicated by an independent physician.
Using a modified intent-to-treat approach, treated patients were included for analysis in their randomly-assigned treatment groups. Participation of sites with serious GCP or quality concerns were terminated and their data excluded from the analyses. Post-baseline measures through 14 days after the last study drug dose were included. […] The central histopathologist's re-read of baseline biopsies was used as baseline. Patients who no longer qualified on re-read were included in the analyses. […] Stratification-adjusted risk differences adjusted similarly are provided. The primary analyses included only observed data; sensitivity analyses included multiply-imputing missing follow-up and considering missing follow-up as a non-responder. Each active dose was compared to placebo regarding changes in NASH CRN scores using analysis of covariance with adjustment for age, sex, diabetes mellitus, Vitamin E≥400 IU, baseline fibrosis F1 versus F2/F3, and the baseline value. Changes in laboratory markers from baseline to 6 months and to 12 months were analyzed similarly.

## COc1cccc(C(=O)COc2ccc(CC3SC(=O)NC3=O)cc2)c1 (centres unmarked) [MSDC-0602K]
62.5 mg
  Non-cardiac chest pain (SAE): 1 patients
  Subjects with TEAEs Leading to Study Drug Discontinuation: 2 (2.0) n (%)
  Subjects with TEAEs Related to Study Drug: 22 (22.2) n (%)
  Subjects with TEAEs Related to Study Drug and Leading to Study Drug Discontinuation: 0 (0.0) n (%)
  Subjects with any Treatment-Emergent Adverse Event (TEAE): 78 (78.8) n (%)
  TESAE: General disorders and administration site conditions: 1 ( 1.0) n (%)
  TESAE: Non-cardiac chest pain: 1 ( 1.0) n (%)
  adverse events of edema: 6 patients
  fractures requiring hospitalization or surgery: 1 patients
  treatment discontinuation rate: 9.1%
  unadjusted median weight change: 0.82 kg
125 mg
  Non-cardiac chest pain (SAE): 1 patients
  Subjects with TEAEs Leading to Study Drug Discontinuation: 3 (3.1) n (%)
  Subjects with TEAEs Related to Study Drug: 26 (26.5) n (%)
  Subjects with TEAEs Related to Study Drug and Leading to Study Drug Discontinuation: 1 (1.0) n (%)
  Subjects with any Treatment-Emergent Adverse Event (TEAE): 76 (77.6) n (%)
  TESAE: General disorders and administration site conditions: 2 (2.0) n (%)
  TESAE: Non-cardiac chest pain: 1 (1.0) n (%)
  adjudicated HF hospitalization: One
  adjudicated MACE: two
  adverse events of edema: 11 patients
  fractures requiring hospitalization or surgery: 1 patients
  treatment discontinuation rate: 12.2%
  unadjusted median weight change: 1.10 kg
  unrelated deaths: one
250 mg
  Subjects with TEAEs Leading to Study Drug Discontinuation: 1 (1.0) n (%)
  Subjects with TEAEs Related to Study Drug: 25 (24.8) n (%)
  Subjects with TEAEs Related to Study Drug and Leading to Study Drug Discontinuation: 0 (0.0) n (%)
  Subjects with any Treatment-Emergent Adverse Event (TEAE): 77 (76.2) n (%)
  TESAE: General disorders and administration site conditions: 1 (1.0) n (%)
  TESAE: Non-cardiac chest pain: 0 (0.0) n (%)
  adjudicated severe hypoglycemia event: One
  adverse events of edema: 7 patients
  fractures requiring hospitalization or surgery: 2 patients
  treatment discontinuation rate: 12.9%
  unadjusted median weight change: 2.28 kg
12 months daily oral
  tolerability: well tolerated
All groups
  adjudicated liver events: no adjudicated liver events occurred
